Laboratory results reported in paper PMC6274259, “New 3-Cyano-2-Substituted Pyridines Induce Apoptosis in MCF 7 Breast Cancer Cells” (Molecules, 2016).

What was measured:
MCF-7 cells = assay: Morphological examination of MCF-7 cells; type: cell-based, human; conditions: 24 h
Protocol: The morphological changes in MCF-7 cells were followed up after treatment with different concentrations of compound 9a (0.05, 0.1, 0.5, 2, 5 and 10 μM) for 24 h. […] Untreated cells were used as a negative control.
Morphological examination was performed as described previously; MCF-7 cells were plated on 96 well plates using 5 × 10^4 cells/well and allowed to reach 75%–85% confluence. The compounds were added to the medium, untreated cells were used as negative control, in addition to blank cells (medium) and vehicle which consist of (DMSO 0.4% + cells). After treatment, all the cells were incubated for 24 h in an atmosphere containing 5% CO2. After […] of treatment, the morphological changes of the cells were examined and photographs were taken using an inverted microscope at 400× magnification.

[1] = test system: MCF-7 human breast adenocarcinoma cell line; assay: WST-1 cell viability assay, MCF-7; type: cell-based; conditions: for IC50: WST-1, 24 h treatment, mean ± S.D of three independent experiments
Description: (§1) The synthesized compounds were screened for their cytotoxicity on five cancer cell lines, namely SK-OV-3, MCF-7, MDA-MB-231, HCT-116 and RKO, using a WST colorimetric assay. The assay principle is based upon the reduction of the tetrazolium salt WST-1 to formazan by cellular mitochondrial dehydrogenases present in viable cells. […] Among the latter compounds the benzohydrazide derivative 9a emerged with the lowest IC50 in this study against MCF-7 cells compared to 5-FU. […] Based on the fact that 9a had less cytotoxic effects on normal breast epithelial cells it was subjected to further studies.
(§2) The following cell lines were used for the screening stage, obtained from the American Type Culture Collection (ATCC, Manassas, VA, USA); SK-OV-3 (HTB-77), MCF-12A (ATCC CRL-10782), MDA-MB-231 (ATCC HTB-26), HCT-116 (CCL-247), RKO (CRL-2577) and sub-culturing of the above cell lines was conducted in 75 cm^2 flasks. The old culture media was removed and discarded after assessing the confluency of the cells and the cells were rinsed with 2–3 mL diluted trypsin (1×) (trypsin/EDTA solution consists of 0.025% trypsin and 0.01% EDTA in PBS), for about 5 minutes for complete detachment. The cells were observed under the inverted microscope until the cell layer is completely dispersed. 75 cm^2 flasks were prepared and 16 mL of DMEM media for SK-OV-3, MCF-7, MDA-MB-231, (DMEM 4500 mg glucose) and RPMI media for HCT-116 were added to each flask. The cells were aspirated gently and added to the flasks. DMEM 4500 mg/L high glucose with 10% FBS, 5% streptomycin and penicillin, RPMI 1640 (prepared by adding 5% heat-inactivated FCS and 2 mm glutamine) were used. DMEM was also used for MCF-12A cells with the addition of human epidermal growth factor 20 ng/mL, insulin 0.01 mg/mL and hydrocortisone 500 ng/mL.
(§3) The synthesized compounds were screened for their anti-proliferative activity using 5-FU (F6627-1G, Sigma-Aldrich, St. Louis, MO, USA) as reference compound. A concentration of 0.4% DMSO was used in all experiment after ensuring 100% viability of the cell lines with this concentration. A 25 mM stock concentration of all compounds was prepared for further studies and analysis.
(§4) Cells were trypsinized and placed in a 15 mL Falcon tube, the cells were centrifuged for 3 min at 1000 rpm. Trypsin is decanted using a sterile pipette and then the pellet is loosened by flicking the tube few times then 5–10 mL warm DMEM or RPMI were added to the Falcon tube and the pellet is resuspended. Cell count was done next by taking 10 μL of the suspension into the cell counting slide and read under 10× cells/mL. A cell stock of 50,000 cells/mL was prepared for the 96 wells. Cells (100 μL) were added to each well using a sterile pipette each time to ensure consistency. The experiment was planned ahead of time using excel sheet, 3–6 wells were reserved as blank media while 3–6 wells for vehicle (DMSO). The plate was incubated for 24 h for compound treatment step. DMEM media was used to prepare different dilutions of the compounds. The old DMEM media was removed from the wells using sterile pipette in the hood and the media was replaced with 100 μL media with each compound. The plate was incubated for 24 h. After 24 h incubation, WST-1 reagent (Sigma) was added to each well and then the plate was incubated for 1 h before measuring the absorbance using VICTOR™ Multilabel Plate Reader (Perkin Elmer, Beaconsfield, UK). The absorbance of the colored solution can be quantified by measuring at a certain wavelength (usually between 500–600 nm), in this experiment the first reading was conducted at 540 nm and the second reading at 690 nm for the reference wavelength. The percentage of cell viability was determined as the ratio of the absorbance of the sample vs the control. Three independent experiments were performed. […] 5-Florouracil (Sigma-Aldrich, F6627-1G) was used as reference standard.

[2] = test system: MDA-MB-231 human breast adenocarcinoma cell line; assay: WST-1 cell viability assay, MDA-MB-231; type: cell-based; conditions: Homo sapiens, MDA-MB-231; WST-1, 24 h treatment, mean ± S.D of three independent experiments
Description: as §1, §2, §3, §4

[3] = test system: HCT-116 human colon carcinoma cell line; assay: WST-1 cell viability assay, HCT-116; type: cell-based; conditions: Homo sapiens, HCT-116; WST-1, 24 h treatment, mean ± S.D of three independent experiments
Description: as §1, §2, §3, §4

[4] = test system: RKO human colon carcinoma cell line; assay: WST-1 cell viability assay, RKO; type: cell-based; conditions: Homo sapiens, Colon carcinoma cell; WST-1, 24 h treatment, mean ± S.D of three independent experiments
Description: as §1, §2, §3, §4

[5] = test system: SK-OV-3 human ovarian carcinoma cell line; assay: WST-1 cell viability assay, SK-OV-3; type: cell-based; conditions: Homo sapiens, SK-OV-3; WST-1, 24 h treatment, mean ± S.D of three independent experiments
Description: as §1, §2, §3, §4

- IC50 ([1]; Homo sapiens, MCF7, 24 h): 2 µM
- IC50 [1]: 2.04 ± 0.13 µM
- IC50 [2]: 22.3 ± 0.88 µM
- IC50 [3]: 7.12 ± 0.37 µM
- IC50 [4]: 8.22 ± 0.99 µM
- IC50 [5]: 9.06 ± 0.24 µM
SMILES: COc1ccc(-c2cc(-c3ccc(OC)c(OC)c3)c(C#N)c(OCC(=O)NNC(=O)c3ccccc3)n2)cc1OC [Compound 9a, N'-[2-(3-cyano-4,6-bis(3,4-dimethoxyphenyl)pyridin-2-yloxy)acetyl]benzohydrazide]
- morphological changes (MCF-7 cells; 0.05, 0.1 and 0.5 μM): no morphological changes were observed
- morphological changes (MCF-7 cells; 2, 5 and 10 μM): apoptotic features were observed
- viability at 2 µM ([1]; Homo sapiens, MCF7, 2 μM, 24 h, WST-1, read-out: cell viability in MCF-7 cells): ~50%
